# Data published in the supplement of paper PMC12463676, “Small-molecule dissolution of stress granules by redox modulation benefits ALS models” (Nature Chemical Biology, 2025).
# Compound: NC(=O)CCCCC1CCSS1 [lipoamide]
# Experiment: thermal stability z-score vs DMSO; higher = more thermally stabilized by treatment
# Settings: HeLa; lipoamide concentration 100 µM; arsenate co-treatment: 1 mM arsenate 1 h
# Procedure: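 Cellular thermal proteome profiling in HeLa cells. Cells were treated with 100 µM lipoamide for 1 h, with or without 1 mM arsenate for a further 1 h, then heated to ten temperatures (37-66.3 °C), and soluble protein was quantified by TMT mass spectrometry relative to 0.1% DMSO controls. The thermal stability score (sum of log2 fold changes minus the abundance score) was transformed to a z-score; mean of n = 3 experiments.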
# 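Also: each temperature applied for 3 min, abundance score taken as mean log2 fold change at the two lowest temperatures, z-score obtained by mean subtraction and division by SD.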
# UniProt Q969H6, sequence (Q969H6 whole entry): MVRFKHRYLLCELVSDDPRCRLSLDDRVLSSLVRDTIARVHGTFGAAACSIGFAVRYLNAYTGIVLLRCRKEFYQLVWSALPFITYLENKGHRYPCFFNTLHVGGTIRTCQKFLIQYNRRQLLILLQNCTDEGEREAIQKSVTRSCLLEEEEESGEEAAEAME
# UniProt P22234, sequence (P22234 whole entry): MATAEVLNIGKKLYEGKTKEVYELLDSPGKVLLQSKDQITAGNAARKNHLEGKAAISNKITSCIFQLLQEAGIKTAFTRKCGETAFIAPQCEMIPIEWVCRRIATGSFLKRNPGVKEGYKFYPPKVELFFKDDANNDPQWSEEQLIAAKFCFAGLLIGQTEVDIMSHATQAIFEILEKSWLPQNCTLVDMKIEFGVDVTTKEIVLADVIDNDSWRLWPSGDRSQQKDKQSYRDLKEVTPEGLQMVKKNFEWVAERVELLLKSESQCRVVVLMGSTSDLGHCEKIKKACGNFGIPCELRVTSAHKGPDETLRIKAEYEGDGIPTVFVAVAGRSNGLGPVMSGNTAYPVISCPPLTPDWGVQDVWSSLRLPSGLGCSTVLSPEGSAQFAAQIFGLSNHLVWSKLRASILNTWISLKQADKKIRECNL
# UniProt Q96BJ3, sequence (Q96BJ3 whole entry): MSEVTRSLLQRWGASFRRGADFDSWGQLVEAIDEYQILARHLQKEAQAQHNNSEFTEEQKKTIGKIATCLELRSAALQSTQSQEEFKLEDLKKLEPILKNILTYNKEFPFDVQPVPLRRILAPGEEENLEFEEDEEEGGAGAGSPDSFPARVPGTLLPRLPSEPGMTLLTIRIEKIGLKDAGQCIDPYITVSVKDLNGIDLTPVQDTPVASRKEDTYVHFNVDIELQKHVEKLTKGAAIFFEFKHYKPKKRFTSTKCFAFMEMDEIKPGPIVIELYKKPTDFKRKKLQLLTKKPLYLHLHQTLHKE
# UniProt Q5VTE6, sequence (Q5VTE6 whole entry): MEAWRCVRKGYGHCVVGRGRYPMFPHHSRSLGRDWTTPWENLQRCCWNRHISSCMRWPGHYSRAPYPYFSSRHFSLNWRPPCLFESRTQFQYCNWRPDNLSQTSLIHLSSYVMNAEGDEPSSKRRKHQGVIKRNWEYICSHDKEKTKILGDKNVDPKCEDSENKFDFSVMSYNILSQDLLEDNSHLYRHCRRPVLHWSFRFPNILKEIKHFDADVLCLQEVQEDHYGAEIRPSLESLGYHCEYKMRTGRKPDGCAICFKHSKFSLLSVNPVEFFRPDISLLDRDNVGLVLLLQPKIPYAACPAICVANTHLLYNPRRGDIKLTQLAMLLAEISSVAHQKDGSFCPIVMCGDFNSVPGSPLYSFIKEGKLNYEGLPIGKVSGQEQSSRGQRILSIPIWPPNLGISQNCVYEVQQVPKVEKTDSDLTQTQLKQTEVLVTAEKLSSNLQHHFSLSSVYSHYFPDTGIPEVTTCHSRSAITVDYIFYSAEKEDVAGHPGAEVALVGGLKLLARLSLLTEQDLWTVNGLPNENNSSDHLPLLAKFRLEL
# UniProt Q8NEY8, sequence (Q8NEY8 whole entry): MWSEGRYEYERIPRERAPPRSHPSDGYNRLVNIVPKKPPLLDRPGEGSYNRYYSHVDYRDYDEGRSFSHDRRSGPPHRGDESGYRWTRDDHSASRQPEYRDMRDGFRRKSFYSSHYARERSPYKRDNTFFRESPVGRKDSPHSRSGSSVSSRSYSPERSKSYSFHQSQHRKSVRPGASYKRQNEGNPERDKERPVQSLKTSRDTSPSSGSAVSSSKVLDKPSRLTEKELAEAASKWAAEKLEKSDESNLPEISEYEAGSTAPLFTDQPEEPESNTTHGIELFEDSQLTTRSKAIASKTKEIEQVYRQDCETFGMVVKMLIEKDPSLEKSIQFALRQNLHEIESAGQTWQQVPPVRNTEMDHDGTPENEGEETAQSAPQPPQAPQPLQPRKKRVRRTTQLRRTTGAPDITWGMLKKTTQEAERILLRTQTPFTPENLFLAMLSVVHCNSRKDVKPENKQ
# UniProt O75190, sequence (O75190 whole entry): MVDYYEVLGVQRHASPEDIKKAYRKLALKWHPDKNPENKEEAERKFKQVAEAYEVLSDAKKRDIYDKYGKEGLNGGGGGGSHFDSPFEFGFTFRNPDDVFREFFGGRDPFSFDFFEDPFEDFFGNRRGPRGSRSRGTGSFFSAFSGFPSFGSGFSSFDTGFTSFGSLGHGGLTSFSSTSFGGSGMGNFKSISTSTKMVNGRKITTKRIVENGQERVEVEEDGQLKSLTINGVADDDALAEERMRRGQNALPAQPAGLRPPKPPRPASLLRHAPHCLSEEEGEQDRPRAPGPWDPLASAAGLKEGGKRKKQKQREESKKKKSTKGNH
# UniProt Q9NZM1, sequence (Q9NZM1 whole entry): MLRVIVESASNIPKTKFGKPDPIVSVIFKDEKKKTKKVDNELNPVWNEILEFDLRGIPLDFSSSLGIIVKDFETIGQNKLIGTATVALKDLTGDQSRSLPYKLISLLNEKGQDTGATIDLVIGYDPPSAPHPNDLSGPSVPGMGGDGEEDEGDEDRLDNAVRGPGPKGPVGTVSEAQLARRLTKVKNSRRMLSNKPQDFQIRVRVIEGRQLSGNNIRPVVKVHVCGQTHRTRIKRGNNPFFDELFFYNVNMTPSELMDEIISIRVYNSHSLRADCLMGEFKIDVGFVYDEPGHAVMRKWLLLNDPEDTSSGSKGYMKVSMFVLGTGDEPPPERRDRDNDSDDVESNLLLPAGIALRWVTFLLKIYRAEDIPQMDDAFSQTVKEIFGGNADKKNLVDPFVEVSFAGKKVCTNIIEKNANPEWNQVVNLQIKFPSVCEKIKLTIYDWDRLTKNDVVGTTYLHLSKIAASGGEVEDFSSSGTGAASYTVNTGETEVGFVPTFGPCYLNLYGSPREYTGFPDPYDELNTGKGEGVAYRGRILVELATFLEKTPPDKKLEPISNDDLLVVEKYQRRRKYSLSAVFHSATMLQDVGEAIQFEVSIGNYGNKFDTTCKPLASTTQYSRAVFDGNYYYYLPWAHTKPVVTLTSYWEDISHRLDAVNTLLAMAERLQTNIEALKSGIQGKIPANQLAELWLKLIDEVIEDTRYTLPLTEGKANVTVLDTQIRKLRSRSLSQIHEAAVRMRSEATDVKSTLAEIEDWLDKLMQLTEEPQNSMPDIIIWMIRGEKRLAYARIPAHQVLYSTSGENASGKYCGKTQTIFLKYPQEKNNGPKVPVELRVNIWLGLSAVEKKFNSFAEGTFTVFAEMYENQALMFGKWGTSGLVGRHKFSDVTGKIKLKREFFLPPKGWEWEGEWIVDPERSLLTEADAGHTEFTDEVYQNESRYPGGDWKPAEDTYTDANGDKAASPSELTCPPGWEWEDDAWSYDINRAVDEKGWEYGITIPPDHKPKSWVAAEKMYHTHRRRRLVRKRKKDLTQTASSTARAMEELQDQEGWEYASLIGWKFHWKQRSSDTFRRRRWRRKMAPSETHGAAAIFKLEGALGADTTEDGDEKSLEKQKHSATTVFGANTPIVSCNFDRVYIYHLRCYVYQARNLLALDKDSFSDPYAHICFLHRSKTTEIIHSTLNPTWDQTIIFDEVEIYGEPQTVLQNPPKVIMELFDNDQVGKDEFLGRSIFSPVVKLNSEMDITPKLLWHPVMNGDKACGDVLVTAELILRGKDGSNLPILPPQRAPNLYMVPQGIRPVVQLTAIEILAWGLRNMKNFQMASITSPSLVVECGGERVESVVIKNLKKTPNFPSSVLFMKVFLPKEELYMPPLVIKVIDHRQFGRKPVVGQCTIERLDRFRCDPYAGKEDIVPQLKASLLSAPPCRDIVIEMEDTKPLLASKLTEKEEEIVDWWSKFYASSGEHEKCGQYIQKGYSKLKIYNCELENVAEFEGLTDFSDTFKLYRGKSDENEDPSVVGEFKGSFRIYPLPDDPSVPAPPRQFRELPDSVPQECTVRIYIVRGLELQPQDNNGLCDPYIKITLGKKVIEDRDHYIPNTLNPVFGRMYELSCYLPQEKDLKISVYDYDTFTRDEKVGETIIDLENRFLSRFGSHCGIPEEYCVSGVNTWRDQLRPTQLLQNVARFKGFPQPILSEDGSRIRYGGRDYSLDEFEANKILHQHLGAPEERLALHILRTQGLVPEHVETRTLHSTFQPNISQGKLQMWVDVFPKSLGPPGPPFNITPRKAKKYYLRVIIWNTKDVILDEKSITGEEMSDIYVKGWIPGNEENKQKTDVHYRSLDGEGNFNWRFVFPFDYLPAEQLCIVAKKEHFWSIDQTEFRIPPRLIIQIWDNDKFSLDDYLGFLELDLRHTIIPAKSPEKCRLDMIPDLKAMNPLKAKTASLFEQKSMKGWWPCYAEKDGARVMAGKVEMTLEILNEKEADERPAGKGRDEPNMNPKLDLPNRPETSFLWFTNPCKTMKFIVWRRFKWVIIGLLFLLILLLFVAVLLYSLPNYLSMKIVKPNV
# UniProt Q96D53, sequence (Q96D53 whole entry): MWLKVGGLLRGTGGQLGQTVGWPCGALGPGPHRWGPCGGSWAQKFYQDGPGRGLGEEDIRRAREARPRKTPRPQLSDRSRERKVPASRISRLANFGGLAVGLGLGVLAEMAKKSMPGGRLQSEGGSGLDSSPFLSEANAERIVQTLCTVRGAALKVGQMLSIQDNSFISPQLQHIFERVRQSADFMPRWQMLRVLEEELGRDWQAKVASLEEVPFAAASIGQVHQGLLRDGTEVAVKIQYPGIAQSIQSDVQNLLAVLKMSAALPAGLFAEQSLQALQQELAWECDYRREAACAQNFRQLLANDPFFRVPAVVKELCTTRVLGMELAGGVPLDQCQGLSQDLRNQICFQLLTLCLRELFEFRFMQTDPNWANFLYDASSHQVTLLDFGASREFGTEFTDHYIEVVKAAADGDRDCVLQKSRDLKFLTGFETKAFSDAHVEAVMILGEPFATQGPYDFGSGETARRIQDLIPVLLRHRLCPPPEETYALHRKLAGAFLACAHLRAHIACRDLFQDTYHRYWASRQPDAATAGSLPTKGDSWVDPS
# UniProt O75964, sequence (O75964 whole entry): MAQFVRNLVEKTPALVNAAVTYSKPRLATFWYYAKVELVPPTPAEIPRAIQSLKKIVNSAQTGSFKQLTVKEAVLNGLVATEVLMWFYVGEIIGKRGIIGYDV
row,Target,thermal stability z-score
1,CD3EAP (UniProt O15446),0.354
2,GIT2 (UniProt Q14161),1.13
3,ATP2A2 (UniProt P16615),-1.16
4,ATP6V0A2 (UniProt Q9Y487),-0.105
5,CAMKMT (UniProt Q7Z624),0.0977
6,GPD1L (UniProt Q8N335),0.106
7,CCT7 (UniProt Q99832),-0.0924
8,BYSL (UniProt Q13895),-0.197
9,UNC13B (UniProt O14795),-0.0346
10,IARS (UniProt P41252),-0.197
11,AKR1B1 (UniProt P15121),0.596
12,LPGAT1 (UniProt Q92604),-0.218
13,SLC43A2 (UniProt Q8N370),0.846
14,SIRT5 (UniProt Q9NXA8),-0.814
15,PSME3 (UniProt P61289),0.957
16,PCLO (UniProt Q9Y6V0),0.448
17,WBP2 (UniProt Q969T9),0.689
18,CLCN3 (UniProt P51790),-0.368
19,ANAPC2 (UniProt Q9UJX6),-0.312
20,DTNBP1 (UniProt Q96EV8),0.331
21,IGF2R (UniProt P11717),-1.48
22,FMNL2 (UniProt Q96PY5),0.0679
23,BAG4 (UniProt O95429),0.25
24,CDC37 (UniProt Q16543),0.928

row,Target,thermal stability z-score
1,PAICS (UniProt P22234),0.653
2,NOC2L (UniProt Q9Y3T9),0.154
3,PLEKHF1 (UniProt Q96S99),-0.218
4,S100A4 (UniProt P26447),-0.414
5,FHL3 (UniProt Q13643),0.648
6,MRPS22 (UniProt P82650),-0.329
7,YOD1 (UniProt Q5VVQ6),-0.00898
8,MPC2 (UniProt O95563),0.0545
9,ZFAND5 (UniProt O76080),1.13
10,FIP1L1 (UniProt Q6UN15),0.903
11,EXOC1 (UniProt Q9NV70),-0.268
12,NAA38 (UniProt Q9BRA0),0.599
13,ZCCHC6 (UniProt Q5VYS8),-0.043
14,PCYT1A (UniProt P49585),0.0432
15,NHLRC2 (UniProt Q8NBF2),-0.233
16,PPHLN1 (UniProt Q8NEY8),0.687
17,PRELID3B (UniProt Q9Y3B1),-0.72
18,SMARCAL1 (UniProt Q9NZC9),0.0881
19,POP5 (UniProt Q969H6),-0.5
20,HDAC4 (UniProt P56524),0.426
21,BAG3 (UniProt O95817),-0.145
22,PHF3 (UniProt Q92576),1.05
23,ATP5L (UniProt O75964),0.758
24,TMEM263 (UniProt Q8WUH6),0.283

row,Target,thermal stability z-score
1,PRPF38A (UniProt Q8NAV1),0.22
2,ANGEL2 (UniProt Q5VTE6),-0.111
3,ADCK4 (UniProt Q96D53),-2.27
4,MAP2K4 (UniProt P45985),-0.37
5,TRIM47 (UniProt Q96LD4),-0.148
6,PLEC (UniProt Q15149),2.76
7,PTBP2 (UniProt Q9UKA9),-0.138
8,AIDA (UniProt Q96BJ3),-0.00864
9,RABEP1 (UniProt Q15276),-0.36
10,MYOF (UniProt Q9NZM1),-0.259
11,ENDOD1 (UniProt O94919),-1.14
12,SENP6 (UniProt Q9GZR1),-0.0511
13,MED6 (UniProt O75586),0.171
14,COPG2 (UniProt Q9UBF2),-0.16
15,NDUFB5 (UniProt O43674),-0.958
16,NUP37 (UniProt Q8NFH4),0.338
17,RPA3 (UniProt P35244),0.313
18,CDV3 (UniProt Q9UKY7),0.669
19,MUL1 (UniProt Q969V5),-0.0704
20,DNAJB6 (UniProt O75190),1.19
21,GLRX5 (UniProt Q86SX6),1.13
22,PALMD (UniProt Q9NP74),1.1
23,WDHD1 (UniProt O75717),1.28

# Same assay, conditions: HeLa; lipoamide concentration 100 µM; arsenate co-treatment: none
row,Target,thermal stability z-score
1,CD3EAP (UniProt O15446),-0.286
2,GIT2 (UniProt Q14161),1.87
3,ATP2A2 (UniProt P16615),-0.667
4,ATP6V0A2 (UniProt Q9Y487),0.146
5,CAMKMT (UniProt Q7Z624),-0.0333
6,GPD1L (UniProt Q8N335),-0.108
7,CCT7 (UniProt Q99832),-0.191
8,BYSL (UniProt Q13895),0.349
9,UNC13B (UniProt O14795),-0.119
10,IARS (UniProt P41252),-0.0191
11,AKR1B1 (UniProt P15121),0.698
12,LPGAT1 (UniProt Q92604),0.0487
13,SLC43A2 (UniProt Q8N370),1.05
14,SIRT5 (UniProt Q9NXA8),-1.26
15,PSME3 (UniProt P61289),0.849
16,PCLO (UniProt Q9Y6V0),0.235
17,WBP2 (UniProt Q969T9),0.465
18,CLCN3 (UniProt P51790),-0.225
19,ANAPC2 (UniProt Q9UJX6),-0.0871
20,DTNBP1 (UniProt Q96EV8),0.505
21,IGF2R (UniProt P11717),-0.964
22,FMNL2 (UniProt Q96PY5),-0.0271
23,BAG4 (UniProt O95429),0.752
24,CDC37 (UniProt Q16543),0.616

row,Target,thermal stability z-score
1,PAICS (UniProt P22234),0.549
2,NOC2L (UniProt Q9Y3T9),0.208
3,PLEKHF1 (UniProt Q96S99),-0.0271
4,S100A4 (UniProt P26447),-0.145
5,FHL3 (UniProt Q13643),-0.254
6,MRPS22 (UniProt P82650),0.295
7,YOD1 (UniProt Q5VVQ6),-0.121
8,MPC2 (UniProt O95563),-0.501
9,ZFAND5 (UniProt O76080),0.84
10,FIP1L1 (UniProt Q6UN15),0.265
11,EXOC1 (UniProt Q9NV70),0.043
12,NAA38 (UniProt Q9BRA0),0.425
13,ZCCHC6 (UniProt Q5VYS8),-0.0119
14,PCYT1A (UniProt P49585),0.294
15,NHLRC2 (UniProt Q8NBF2),0.152
16,PPHLN1 (UniProt Q8NEY8),0.672
17,PRELID3B (UniProt Q9Y3B1),-0.844
18,SMARCAL1 (UniProt Q9NZC9),-0.0213
19,POP5 (UniProt Q969H6),-0.587
20,HDAC4 (UniProt P56524),0.45
21,BAG3 (UniProt O95817),0.303
22,PHF3 (UniProt Q92576),0.76
23,ATP5L (UniProt O75964),-1.18
24,TMEM263 (UniProt Q8WUH6),-0.54

row,Target,thermal stability z-score
1,PRPF38A (UniProt Q8NAV1),0.213
2,ANGEL2 (UniProt Q5VTE6),-0.19
3,ADCK4 (UniProt Q96D53),-0.801
4,MAP2K4 (UniProt P45985),0.139
5,TRIM47 (UniProt Q96LD4),-0.0936
6,PLEC (UniProt Q15149),2.01
7,PTBP2 (UniProt Q9UKA9),-0.14
8,AIDA (UniProt Q96BJ3),0.00569
9,RABEP1 (UniProt Q15276),-0.194
10,MYOF (UniProt Q9NZM1),0.0805
11,ENDOD1 (UniProt O94919),-0.77
12,SENP6 (UniProt Q9GZR1),-0.0676
13,MED6 (UniProt O75586),0.0477
14,COPG2 (UniProt Q9UBF2),-0.253
15,NDUFB5 (UniProt O43674),-0.151
16,NUP37 (UniProt Q8NFH4),-0.0489
17,RPA3 (UniProt P35244),0.624
18,CDV3 (UniProt Q9UKY7),0.83
19,MUL1 (UniProt Q969V5),-0.261
20,DNAJB6 (UniProt O75190),0.248
21,GLRX5 (UniProt Q86SX6),-0.225
22,PALMD (UniProt Q9NP74),0.987
23,WDHD1 (UniProt O75717),1.01

# Compound: O=[As]([O-])(O)O.[K+] [potassium arsenate]
# Experiment: as above
# Settings: HeLa; arsenate concentration 1 mM
# Procedure: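 Cellular thermal proteome profiling in HeLa cells treated with 1 mM arsenate for 1 h (DMSO pretreatment), heated to ten temperatures (37-66.3 °C). Soluble protein was quantified by TMT mass spectrometry relative to DMSO controls; the thermal stability score was transformed to a z-score; mean of n = 3 experiments.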
row,Target,thermal stability z-score
1,CD3EAP (UniProt O15446),-3.13
2,GIT2 (UniProt Q14161),1
3,ATP2A2 (UniProt P16615),-0.0158
4,ATP6V0A2 (UniProt Q9Y487),-0.424
5,CAMKMT (UniProt Q7Z624),-0.235
6,GPD1L (UniProt Q8N335),-0.935
7,CCT7 (UniProt Q99832),-0.275
8,BYSL (UniProt Q13895),0.424
9,UNC13B (UniProt O14795),-0.156
10,IARS (UniProt P41252),0.763
11,AKR1B1 (UniProt P15121),1.19
12,LPGAT1 (UniProt Q92604),0.251
13,SLC43A2 (UniProt Q8N370),-1.03
14,SIRT5 (UniProt Q9NXA8),-1.02
15,PSME3 (UniProt P61289),0.504
16,PCLO (UniProt Q9Y6V0),-0.0814
17,WBP2 (UniProt Q969T9),-0.0559
18,CLCN3 (UniProt P51790),-0.374
19,ANAPC2 (UniProt Q9UJX6),0.093
20,DTNBP1 (UniProt Q96EV8),-0.102
21,IGF2R (UniProt P11717),-0.374
22,FMNL2 (UniProt Q96PY5),-0.048
23,BAG4 (UniProt O95429),0.76
24,CDC37 (UniProt Q16543),0.222

row,Target,thermal stability z-score
1,PAICS (UniProt P22234),-0.0525
2,NOC2L (UniProt Q9Y3T9),0.0133
3,PLEKHF1 (UniProt Q96S99),-0.0692
4,S100A4 (UniProt P26447),-1.43
5,FHL3 (UniProt Q13643),-3.01
6,MRPS22 (UniProt P82650),-0.109
7,YOD1 (UniProt Q5VVQ6),0.0186
8,MPC2 (UniProt O95563),1.64
9,ZFAND5 (UniProt O76080),0.118
10,FIP1L1 (UniProt Q6UN15),-1.73
11,EXOC1 (UniProt Q9NV70),0.0191
12,NAA38 (UniProt Q9BRA0),-0.643
13,ZCCHC6 (UniProt Q5VYS8),-0.0705
14,PCYT1A (UniProt P49585),1.78
15,NHLRC2 (UniProt Q8NBF2),-2.19
16,PPHLN1 (UniProt Q8NEY8),-0.137
17,PRELID3B (UniProt Q9Y3B1),-0.684
18,SMARCAL1 (UniProt Q9NZC9),-0.0552
19,POP5 (UniProt Q969H6),-0.617
20,HDAC4 (UniProt P56524),-0.19
21,BAG3 (UniProt O95817),0.236
22,PHF3 (UniProt Q92576),-0.848
23,ATP5L (UniProt O75964),0.595
24,TMEM263 (UniProt Q8WUH6),1.43

row,Target,thermal stability z-score
1,PRPF38A (UniProt Q8NAV1),0.503
2,ANGEL2 (UniProt Q5VTE6),-0.0197
3,ADCK4 (UniProt Q96D53),-0.165
4,MAP2K4 (UniProt P45985),-0.444
5,TRIM47 (UniProt Q96LD4),0.944
6,PLEC (UniProt Q15149),-3.9
7,PTBP2 (UniProt Q9UKA9),-0.161
8,AIDA (UniProt Q96BJ3),-0.0785
9,RABEP1 (UniProt Q15276),0.182
10,MYOF (UniProt Q9NZM1),0.0213
11,ENDOD1 (UniProt O94919),0.443
12,SENP6 (UniProt Q9GZR1),-0.18
13,MED6 (UniProt O75586),0.00858
14,COPG2 (UniProt Q9UBF2),0.0479
15,NDUFB5 (UniProt O43674),0.226
16,NUP37 (UniProt Q8NFH4),0.82
17,RPA3 (UniProt P35244),0.872
18,CDV3 (UniProt Q9UKY7),0.683
19,MUL1 (UniProt Q969V5),-2.82
20,DNAJB6 (UniProt O75190),0.728
21,GLRX5 (UniProt Q86SX6),-0.462
22,PALMD (UniProt Q9NP74),1.81
23,WDHD1 (UniProt O75717),-0.982
